The test system of one data set is P. aeruginosa biofilms. Briefly: Biofilm growth assay (spreading biofilm on semi-solid agar), P. aeruginosa. In kind it is cell-based. Particulars: Pseudomonas aeruginosa, biofilm growth assay, overnight 37° C., vs negative controls; Tables 1-5; read-out: P. aeruginosa: concentration that reduces the area of the spreading biofilm by greater than or equal to 85%. Put shortly: (§1)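 Compound added to semi-solid agar: M8 with 0.2% glucose, 100 μM CaCl2, 1 mM MgSO4, 0.5% Casamino acids (P. aeruginosa) or LB with 0.6% agar, 0.5% glucose (E. coli). Center-inoculated with 5 μL overnight culture, incubated overnight at 37 °C; value is concentration (μg/ml) reducing spreading area ≥85% versus negative controls.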

The subject of another data set is E. coli biofilms. Description: Biofilm growth assay (spreading biofilm on semi-solid agar), E. coli. In kind it is cell-based. Particulars: Escherichia coli, biofilm growth assay, overnight 37° C., vs negative controls; Tables 1-5; read-out: E. coli: concentration that reduces the area of the spreading biofilm by greater than or equal to 85%. Put shortly:
as §1

Converted amounts (≈) assume the structure as drawn. Where a name gives a salt, the structure may show the parent alone.

In the case of `CN(C)c1cc(C2=C3[C@@H]4CC(C)(C)CC[C@]4(C(=O)O)CC[C@@]3(C)[C@]3(C)CC[C@H]4C(C)(C)c5n[nH]c(N)c5C[C@]4(C)C3C2)ccn1` (stereo partly drawn) [Example 22, (4aS,6aS,6bR,8aR,13aR,15bS)-12-Amino-15-(2-(dimethylamino)pyridin-4-yl)-2,2,6a,6b,9,9,13a-heptamethyl-2,3,4,4a,5,6,6a,6b,7,8,8a,9,11,13,13a,13b,14,15b-octadecahydro-1H-chryseno[1,2-f]indazole-4-a-carboxylic acid], the melting point – broadly, the temperature of the solid-liquid transition – is greater than 300 °C. Moreover, in the data set with P. aeruginosa biofilms, the IC85 came to 1 µg/mL (≈ 1.63 µM). Moreover, the IC85 in the data set on E. coli biofilms is greater than 2 µg/mL.

On to `CC1(C)CC[C@]2(C(=O)Sc3nnc(N)[nH]3)CC[C@]3(C)C(=C(c4cccnc4)CC4[C@@]5(C)Cc6c(n[nH]c6N)C(C)(C)[C@@H]5CC[C@]43C)[C@@H]2C1` (stereo partly drawn) [Compound 91, (4aS,6aS,6bR,8aR,13aR,15bS)—S-5-Amino-4H-1,2,4-triazol-3-yl 12-amino-2,2,6a,6b,9,9,13a-heptamethyl-15-(pyridin-3-yl)-2,3,4,4a,5,6,6a,6b,7,8,8a,9,11,13,13a,13b,14,15b-octadecahydro-1H-chryseno[1,2-f]indazole-4-a-carbothioate], for which the melting point was greater than 300 °C. Also, the IC85 in the data set on P. aeruginosa biofilms stood at 1 µg/mL (≈ 1.49 µM). Moreover, the IC85 in the data set with E. coli biofilms came out at 1 µg/mL (≈ 1.49 µM).

For the molecule `CC1(C)CC[C@]2(C(=O)O)CC[C@]3(C)C(=C(c4c[nH]c(CN5CCOCC5)c4)CC4[C@@]5(C)Cc6c(n[nH]c6N)C(C)(C)[C@@H]5CC[C@]43C)[C@@H]2C1` (stereo partly drawn) [Example 9, (4aS,6aS,6bR,8aR,13aR,15bS)-12-Amino-2,2,6a,6b,9,9,13a-heptamethyl-15-(5-(morpholinomethyl)-1H-pyrrol-3-yl)-2,3,4,4a,5,6,6a,6b,7,8,8a,9,11,13,13a,13b,14,15b-octadecahydro-1H-chryseno[1,2-f]indazole-4-a-carboxylic acid], the melting point is 270 to 280 °C (dec.). Further, the IC85 in the data set on P. aeruginosa biofilms worked out at 0.5 µg/mL (≈ 0.76 µM). Also, in the data set on E. coli biofilms, the IC85 worked out at 1 µg/mL (≈ 1.52 µM).

Regarding `Cn1nc([C@]23CCC(C)(C)CC2C2=CCC4[C@@]5(C)Cc6c(n[nH]c6N)C(C)(C)C5CC[C@@]4(C)[C@]2(C)CC3)cc1N` (stereo partly drawn) [Compound 72, (4aS,6aS,6bR,8aR,13aR,15bS)-4-a-(5-Amino-1-methyl-1H-pyrazol-3-yl)-2,2,6a,6b,9,9,13a-heptamethyl-2,3,4,4a,5,6,6a,6b,7,8,8a,9,11,13,13a,13b,14,15b-octadecahydro-1H-chryseno[1,2-f]indazol-12-amine], the melting point is 195 to 210 °C (dec.). Moreover, in the data set on P. aeruginosa biofilms, the IC85 turned out to be 1 µg/mL (≈ 1.84 µM). Besides, in the data set on E. coli biofilms, the IC85 was greater than 2 µg/mL.

`CC1(C)CC[C@]2(C(=O)O)CC[C@]3(C)C(=C(c4c[nH]c5ccccc45)CC4[C@@]5(C)Cc6c(n[nH]c6N)C(C)(C)[C@@H]5CC[C@]43C)[C@@H]2C1` (stereo partly drawn) [Example 8, (4aS,6aS,6bR,8aR,13aR,15bS)-12-Amino-15-(1H-indol-3-yl)-2,2,6a,6b,9,9,13a-heptamethyl-2,3,4,4a,5,6,6a,6b,7,8,8a,9,11,13,13a,13b,14,15b-octadecahydro-1H-chryseno[1,2-f]indazole-4-a-carboxylic acid]: the melting point is > 300 °C (dec.). The IC85 with P. aeruginosa biofilms turned out to be 0.25 µg/mL (≈ 0.411 µM). For the same molecule, in the data set on E. coli biofilms, the IC85 was determined as 1 µg/mL (≈ 1.64 µM).

In turn, `CC1(C)CC[C@]2(C(=O)O)CC[C@]3(C)C(=C(c4cc[nH]c4)CC4[C@@]5(C)Cc6c(n[nH]c6N)C(C)(C)[C@@H]5CC[C@]43C)[C@@H]2C1` (stereo partly drawn) [Example 6, (4aS,6aS,6bR,8aR,13aR,15bS)-12-Amino-2,2,6a,6b,9,9,13a-heptamethyl-15-(1H-pyrrol-3-yl)-2,3,4,4a,5,6,6a,6b,7,8,8a,9,11,13,13a,13b,14,15b-octadecahydro-1H-chryseno[1,2-f]indazole-4-a-carboxylic acid] gave a melting point greater than 300 °C. In addition, the IC85 in the data set on P. aeruginosa biofilms is 0.125 µg/mL (≈ 0.224 µM). Also, the IC85 in the data set with E. coli biofilms was 0.25 µg/mL (≈ 0.447 µM).

As to `CC1(C)CC[C@]2(c3n[nH]c(O)c3N3CCNCC3)CC[C@]3(C)C(=CCC4[C@@]5(C)Cc6c(n[nH]c6N)C(C)(C)C5CC[C@]43C)C2C1` (stereo partly drawn) [Compound 90, 3-((4aS,6aS,6bR,13aR)-12-Amino-2,2,6a,6b,9,9,13a-heptamethyl-2,3,4,4a,5,6,6a,6b,7,8,8a,9,11,13,13a,13b,14,15b-octadecahydro-1H-chryseno[1,2-f]indazol-4-a-yl)-4-(piperazin-1-yl)-1H-pyrazol-5-ol], the melting point is greater than 300 °C. For the same molecule, the IC85 with P. aeruginosa biofilms was determined as 0.5 µg/mL (≈ 0.812 µM). Besides, the IC85 in the data set with E. coli biofilms is 1 µg/mL (≈ 1.62 µM).

Regarding `CCC1=C2[C@@H]3CC(C)(C)CC[C@]3(C(=O)O)CC[C@@]2(C)[C@]2(C)CC[C@H]3C(C)(C)c4n[nH]c(N)c4C[C@]3(C)C2C1` (stereo partly drawn) (as salt: ammonium) [Example 14, (4aS,6aS,6bR,8aR,13aR,15bS)-12-Amino-15-ethyl-2,2,6a,6b,9,9,13a-heptamethyl-2,3,4,4a,5,6,6a,6b,7,8,8a,9,11,13,13a,13b,14,15b-octadecahydro-1H-chryseno[1,2-f]indazole-4-a-carboxylic acid], the melting point is greater than 300 °C.

As for `CC1(C)CC[C@]2(C(=O)Nc3nnc(N)s3)CC[C@]3(C)C(=CCC4[C@@]5(C)Cc6c(n[nH]c6N)C(C)(C)C5CC[C@]43C)C2C1` (stereo partly drawn) (as salt: ammonium) [Compound 71, (4aS,6aS,6bR,13aR)-12-Amino-N-(5-amino-1,3,4-thiadiazol-2-yl)-2,2,6a,6b,9,9,13a-heptamethyl-2,3,4,4a,5,6,6a,6b,7,8,8a,9,11,13,13a,13b,14,15b-octadecahydro-1H-chryseno[1,2-f]indazole-4-a-carboxamide], the melting point is 280 to 300 °C (dec.).

Turning to `CC1(C)CC[C@]2(C(=O)n3ccnc3N)CC[C@]3(C)C(=CCC4[C@@]5(C)Cc6c(n[nH]c6N)C(C)(C)C5CC[C@]43C)C2C1` (stereo partly drawn) (as salt: ammonium) [Compound 73, (2-Amino-1H-imidazol-1-yl)((4aS,6aS,6bR,13aR)-12-amino-2,2,6a,6b,9,9,13a-heptamethyl-2,3,4,4a,5,6,6a,6b,7,8,8a,9,11,13,13a,13b,14,15b-octadecahydro-1H-chryseno[1,2-f]indazol-4-a-yl)methanone], the melting point was 230 to 250 °C (dec.).

The molecule `CN(C)c1ccc(C2=C3[C@@H]4CC(C)(C)CC[C@]4(C(=O)O)CC[C@@]3(C)[C@]3(C)CC[C@H]4C(C)(C)c5n[nH]c(N)c5C[C@]4(C)C3C2)cc1` (stereo partly drawn) (as salt: ammonium) [Example 10, (4aS,6aS,6bR,13aR)-12-Amino-15-(4-(dimethylamino)phenyl)-2,2,6a,6b,9,9,13a-heptamethyl-2,3,4,4a,5,6,6a,6b,7,8,8a,9,11,13,13a,13b,14,15b-octadecahydro-1H-chryseno[1,2-f]indazole-4-a-carboxylic acid] returned a melting point greater than 300 °C.

As for `CC1(C)CC[C@]2(C(=O)O)CC[C@]3(C)C(=C(c4cccc(O)c4)CC4[C@@]5(C)Cc6c(n[nH]c6N)C(C)(C)C5CC[C@]43C)C2C1` (stereo partly drawn) (as salt: ammonium) [Example 16, (4aS,6aS,6bR,13aR)-12-Amino-15-(3-hydroxyphenyl)-2,2,6a,6b,9,9,13a-heptamethyl-2,3,4,4a,5,6,6a,6b,7,8,8a,9,11,13,13a,13b,14,15b-octadecahydro-1H-chryseno[1,2-f]indazole-4-a-carboxylic acid], the melting point is 260 to 280 °C (dec.).

For the molecule `CC1(C)CC[C@]2(C(=O)n3cnc(S)n3)CC[C@]3(C)C(=CCC4[C@@]5(C)Cc6c(n[nH]c6N)C(C)(C)C5CC[C@]43C)C2C1` (stereo partly drawn) (as salt: ammonium) [Compound 76, ((4aS,6aS,6bR,13aR)-12-Amino-2,2,6a,6b,9,9,13a-heptamethyl-2,3,4,4a,5,6,6a,6b,7,8,8a,9,11,13,13a,13b,14,15b-octadecahydro-1H-chryseno[1,2-f]indazol-4-a-yl)(3-mercapto-1H-1,2,4-triazol-1-yl)methanone], the melting point was 260 to 280 °C (dec.).

For `CC1(C)CC[C@]2(C(=O)Nc3cc(O)[nH]n3)CC[C@]3(C)C(=CCC4[C@@]5(C)Cc6c(n[nH]c6N)C(C)(C)C5CC[C@]43C)C2C1` (stereo partly drawn) (as salt: ammonium) [Compound 66, (4aS,6aS,6bR,13aR)-12-Amino-N-(5-hydroxy-1H-pyrazol-3-yl)-2,2,6a,6b,9,9,13a-heptamethyl-2,3,4,4a,5,6,6a,6b,7,8,8a,9,11,13,13a,13b,14,15b-octadecahydro-1H-chryseno[1,2-f]indazole-4-a-carboxamide], the melting point is 275 to 295 °C (dec.).

`CC1(C)CC[C@]2(C(=O)O)CC[C@]3(C)C(=C(c4ccco4)CC4[C@@]5(C)Cc6c(n[nH]c6N)C(C)(C)[C@@H]5CC[C@]43C)[C@@H]2C1` (stereo partly drawn) (as salt: ammonium) [Example 7, (4aS,6aS,6bR,13aR)-12-Amino-15-(furan-2-yl)-2,2,6a,6b,9,9,13a-heptamethyl-2,3,4,4a,5,6,6a,6b,7,8,8a,9,11,13,13a,13b,14,15b-octadecahydro-1H-chryseno[1,2-f]indazole-4-a-carboxylic acid]: the melting point is 250 to 270 °C (dec.).

For the molecule `CC1(C)CC[C@]2(C(=O)O)CC[C@]3(C)C(=C(c4ccccc4N)CC4[C@@]5(C)Cc6c(n[nH]c6N)C(C)(C)C5CC[C@]43C)C2C1` (stereo partly drawn) (as salt: ammonium) [Example 23, (4aS,6aS,6bR,13aR)-12-Amino-15-(2-aminophenyl)-2,2,6a,6b,9,9,13a-heptamethyl-2,3,4,4a,5,6,6a,6b,7,8,8a,9,11,13,13a,13b,14,15b-octadecahydro-1H-chryseno[1,2-f]indazole-4-a-carboxylic acid], the melting point is 210 to 230 °C (dec.).
